Columns and labels:
Murine J774 macrophages = assay: Cell viability (MTT reduction) of macrophages treated with GSNO or ONOO— after sulfide pretreatment; format: cell-based; conditions: H2S tested on cells to define the highest tested concentration that would reduce viability
Procedure: Cells were cultured in 96-well plates until cells reached confluence essentially as described in C.
Cell respiration, an indicator of cell viability, was assessed by the mitochondrial-dependent reduction of MTT to formazen (Gross and Levi, 1992). Cells in 96-well plates were incubated at 37° C. with MTT (0.2 mg/ml for 60 min). Culture medium was removed by aspiration, and the cells were solubilized in DMSO. The extent of reduction of MTT to formazan within cells was quantitated by OD550 measurement.
H2S was tested on cells to define the highest tested concentration that would reduce viability. […] Following pretreatment, cells were treated with GSNO (1 mM, 3 mM, or 10 mM). Cell viability was measured at three hours.
Following pretreatment, ONOO— was added at concentrations of 0.3 mM, 0.6 mM, or 1 mM. Cell viability was measured at three hours.
Three hours after treatment, cell viability was measured.
In a related experiment, Murine J774 macrophages were grown until confluency in 96 well plates. Cells were pretreated with H2S (30 mM, 60 mM, 100 mM, 1 mM) for 30 minutes or 24 hours, then cells were incubated with GSNO or ONOO— for 3 hours. GSNO was used in 1 mM and 3 mM concentrations, while ONOO— was used in 300 mM concentration. Following treatment, cells were incubated for 20 minutes with fresh media containing 0.05% MTT. […] Optical density was measured at 550 nm.

[1] = at STP; cited from earlier work
[2] = tested on: LPS-induced IL-1 and TNF production; assay: Bacterial lipopolysaccharide endotoxemia in mice, IL-1β and TNFα plasma levels by ELISA; format: in vivo, C57/BI6 mice; conditions: Tin-protoporphyrin IX 6 mg/kg ip, 30 min before Alzet H2S treatment
Procedure: Four groups of C57/BI6 mice were subjected to bacterial lipopolysaccharide (5 mg/kg ip). Three groups received H2S treatment (0.2 mg/kg/hr, 4 hrs), and a control group received saline using Alzet osmotic minipumps 30 minutes prior to the induction of endotoxemia (n=7−10/group) in both cases. The effect of the heme oxygenase inhibitor tin-protoporphyrin IX (6 mg/kg, ip, 30 min earlier to Alzet treatment) was also examined in two groups. After 4 hours, the animals were anesthetized using pentobarbital (60 mg/kg ip) and blood samples were taken. IL-1β and TNFα plasma levels were measured using a commercially available ELISA kit (R&D Systems).

[3] = cited from earlier work

S [H2S, hydrogen sulfide]
concentration that may confer a protective effect (Murine J774 macrophages): 1 mM

[N]=O [NO, nitric oxide]
soluble in water up to a concentration [1]: about 2 mM

C=Cc1c2[n-]c(c1C)/C=c1\[n-]/c(c(C)c1C=C)=C\c1[n-]c(c(CCC(=O)O)c1C)C=c1[n-]/c(c(C)c1CCC(=O)O)=C\2.[Sn+4] [Tin-protoporphyrin IX, tin-protoporphyrin IX]
effect of H2S on IL-1 after pretreatment with the heme oxygenase inhibitor [2]: attenuated

O=NOO [peroxynitrite]
half-life [3]: ~1 s

— US20140093588A1 (Fred Hutchinson Cancer Research Center, priority 2006, published 2014)
